# Laboratory results as given in PubChem BioAssay AID248 (DTP/NCI, 2004).
# “And” between values parts separate entries of the source, which are not always exact repeats. Equal values may be shown once. Toxic doses and inconclusive results are not listed. Square brackets hold non-standard residues; d marks the D form. Peptide text beside a SMILES is read from it. * marks the point of attachment. ξ: configuration not given here. ξL = CC(C)CC(N)C(=O)O; ClAc = O=C(CCl)*
# Tested on: L1210 leukemia ip in BDF1 mice, survival T/C
# Experiment: NCI In Vivo Anticancer Drug Screen. Data for tumor model L1210 Leukemia (intraperitoneal) in B6D2F1 (BDF1) mice
# Conditions: endpoint: mean survival time, higher = longer survival
# How it was run: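 Tumor cells were implanted, animals were treated, and survival was followed. The result divides the treated measurement by the vehicle-control measurement.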
# [1] = dose: 100.0 mg/kg/injection, schedule: Q01DX009 (ip), vehicle: Klucel (hydroxypropylcellulose) (HPC)
# [2] = dose: 200.0 mg/kg/injection, schedule: Q01DX009 (ip), vehicle: Klucel (hydroxypropylcellulose) (HPC)
# [3] = dose: 50.0 mg/kg/injection, schedule: Q01DX009 (ip), vehicle: saline with Tween-80
# [4] = dose: 100.0 mg/kg/injection, schedule: Q04DX003 (ip), vehicle: Klucel (hydroxypropylcellulose) (HPC)
# [5] = dose: 200.0 mg/kg/injection, schedule: Q04DX003 (ip), vehicle: Klucel (hydroxypropylcellulose) (HPC)
# [6] = dose: 400.0 mg/kg/injection, schedule: Q04DX003 (ip), vehicle: Klucel (hydroxypropylcellulose) (HPC)
# [7] = dose: 100.0 mg/kg/injection, schedule: Q04DX003 (ip), vehicle: saline with Tween-80
# [8] = dose: 100.0 mg/kg/injection, schedule: Q04DX003 (ip), vehicle: saline
# [9] = dose: 100.0 mg/kg/injection, schedule: Q01DX009 (ip), vehicle: saline with Tween-80
# [10] = dose: 200.0 mg/kg/injection, schedule: Q04DX003 (ip), vehicle: saline with Tween-80
# [11] = dose: 400.0 mg/kg/injection, schedule: Q04DX003 (ip), vehicle: saline with Tween-80
# [12] = dose: 200.0 mg/kg/injection, schedule: Q01DX009 (ip), vehicle: saline with Tween-80
compound,measurement,setting,value
O=C(COc1ccc(Br)cc1Br)OCCCl,T/C,"dose: 100.0 mg/kg/injection, schedule: Q01DX001 (ip), vehicle: saline",100 % of control
same,T/C,"dose: 200.0 mg/kg/injection, schedule: Q01DX001 (ip), vehicle: saline",117 % of control
same,T/C,"dose: 400.0 mg/kg/injection, schedule: Q01DX001 (ip), vehicle: saline",103 % of control
ClCc1nc2ccccc2s1,T/C,[1],91 % of control
same,T/C,"dose: 100.0 mg/kg/injection, schedule: Q04DX002 (ip), vehicle: Klucel (hydroxypropylcellulose) (HPC)",92 % of control
same,T/C,[2],98 % of control
same,T/C,"dose: 200.0 mg/kg/injection, schedule: Q04DX002 (ip), vehicle: Klucel (hydroxypropylcellulose) (HPC)",103 % of control
same,T/C,"dose: 400.0 mg/kg/injection, schedule: Q04DX002 (ip), vehicle: Klucel (hydroxypropylcellulose) (HPC)",103 % of control
Nc1ccc(-c2ccc(Br)cc2)cc1,T/C,"dose: 75.0 mg/kg/injection, schedule: Q01DX001 (ip), vehicle: carboxymethylcellulose (CMC)",101 % of control
same,T/C,"dose: 150.0 mg/kg/injection, schedule: Q01DX001 (ip), vehicle: carboxymethylcellulose (CMC)",100 % of control
CC(C)(CN=Cc1ccccc1[O-])N=Cc1ccccc1[O-].[O]=[V],T/C,[3],98 % of control
CCN(C)CCC(C=O)(c1cccc2ccccc12)C(C)C (stereo not drawn),T/C,"dose: 100.0 mg/kg/injection, schedule: Q04DX002 (ip), vehicle: saline",100 % of control
CCN(CC)c1ccc(C=Nc2cccc(C(F)(F)F)c2)cc1,T/C,[1],105 % of control
same,T/C,[4],92 % of control
same,T/C,[2],94 % of control
same,T/C,[5],94 % of control
same,T/C,[6],97 % of control
COc1cc2c(cc1OC)C13CCN4CC5=CCOC6CCN2C1C6C5CC43 (stereo not drawn),T/C,"dose: 25.0 mg/kg/injection, schedule: Q04DX003 (ip), vehicle: saline",101 % of control
same,T/C,"dose: 50.0 mg/kg/injection, schedule: Q04DX003 (ip), vehicle: saline",109 % of control
same,T/C,[7],86 % of control
same,T/C,[8],106 % of control
S=C(NNC(=S)Nc1ccc(Cl)cc1)NNc1ccccc1,T/C,"dose: 100.0 mg/kg/injection, schedule: Q04DX003 (ip), vehicle: acetone",97 % of control
same,T/C,"dose: 200.0 mg/kg/injection, schedule: Q04DX003 (ip), vehicle: acetone",100 % of control
CCOC(=O)NP(=O)(N1CC1(C)C)N1CC1(C)C (stereo not drawn),T/C,"dose: 62.5 mg/kg/injection, schedule: Q01DX010 (ip), vehicle: saline",115 % of control and 120 % of control
same,T/C,"dose: 125.0 mg/kg/injection, schedule: Q01DX010 (ip), vehicle: saline",117 % of control
same,T/C,"dose: 250.0 mg/kg/injection, schedule: Q01DX010 (ip), vehicle: saline",151 % of control and 157 % of control
COc1ccccc1[P+](CO)(c1ccccc1OC)c1ccccc1OC,T/C,"dose: 100.0 mg/kg/injection, schedule: Q01DX009 (ip), vehicle: saline",97 % of control
same,T/C,[8],103 % of control
same,T/C,"dose: 200.0 mg/kg/injection, schedule: Q01DX009 (ip), vehicle: saline",92 % of control
same,T/C,"dose: 200.0 mg/kg/injection, schedule: Q04DX003 (ip), vehicle: saline",97 % of control
same,T/C,"dose: 400.0 mg/kg/injection, schedule: Q01DX009 (ip), vehicle: saline",93 % of control
same,T/C,"dose: 400.0 mg/kg/injection, schedule: Q04DX003 (ip), vehicle: saline",97 % of control
O=[As]O,T/C,"dose: 0.5 mg/kg/injection, schedule: Q01DX015 (ip), vehicle: carboxymethylcellulose (CMC)",97 % of control
same,T/C,"dose: 1.0 mg/kg/injection, schedule: Q01DX015 (ip), vehicle: carboxymethylcellulose (CMC)",93 % of control
same,T/C,"dose: 1.53 mg/kg/injection, schedule: Q01DX Z (ip), vehicle: carboxymethylcellulose (CMC)",110 % of control
same,T/C,"dose: 2.0 mg/kg/injection, schedule: Q01DX015 (ip), vehicle: carboxymethylcellulose (CMC)",97 % of control
same,T/C,"dose: 3.15 mg/kg/injection, schedule: Q01DX Z (ip), vehicle: carboxymethylcellulose (CMC)",98 % of control
same,T/C,"dose: 4.0 mg/kg/injection, schedule: Q01DX015 (ip), vehicle: carboxymethylcellulose (CMC)",97 % of control
same,T/C,"dose: 5.0 mg/kg/injection, schedule: Q01DX015 (ip), vehicle: carboxymethylcellulose (CMC)",88 % of control
same,T/C,"dose: 6.3 mg/kg/injection, schedule: Q01DX Z (ip), vehicle: carboxymethylcellulose (CMC)",104 % of control
same,T/C,"dose: 10.0 mg/kg/injection, schedule: Q01DX015 (ip), vehicle: carboxymethylcellulose (CMC)",87 % of control
same,T/C,"dose: 12.6 mg/kg/injection, schedule: Q01DX Z (ip), vehicle: carboxymethylcellulose (CMC)",104 % of control
Nc1nc2c(ncn2-c2ccccc2Cl)c(=O)[nH]1,T/C,"dose: 100.0 mg/kg/injection, schedule: Q01DX001 (ip), vehicle: saline with Tween-80",95 % of control
same,T/C,"dose: 200.0 mg/kg/injection, schedule: Q01DX001 (ip), vehicle: saline with Tween-80",92 % of control
same,T/C,"dose: 400.0 mg/kg/injection, schedule: Q01DX001 (ip), vehicle: saline with Tween-80",100 % of control
COC1CC(OCc2ccc(Br)cc2)C(COC(c2ccccc2)(c2ccccc2)c2ccccc2)O1 (stereo not drawn),T/C,[4],92 % of control
same,T/C,[5],94 % of control
same,T/C,[6],100 % of control
COC(=O)[CH](C[N+](=O)[O-])[Hg][Cl] (stereo not drawn),T/C,"dose: 3.12 mg/kg/injection, schedule: Q01DX009 (ip), vehicle: saline",94 % of control
same,T/C,"dose: 6.25 mg/kg/injection, schedule: Q01DX009 (ip), vehicle: saline",94 % of control
CC(=O)C1=C(c2ccccc2)C(=O)C(C(C)=O)=C(c2ccccc2)C1=O,T/C,[4],100 % of control
same,T/C,[5],100 % of control
same,T/C,[6],96 % of control
CC(C)CC(NC(=O)CCl)C(=O)NCC(=O)O (stereo not drawn) (ClAc-[ξL]-Gly-OH),T/C,[9],94 % of control
same,T/C,[7],101 % of control
same,T/C,[10],95 % of control
same,T/C,[11],103 % of control
O=CNNc1ccc([N+](=O)[O-])cc1,T/C,"dose: 50.0 mg/kg/injection, schedule: Q01DX009 (ip), vehicle: Klucel (hydroxypropylcellulose) (HPC)",97 % of control
same,T/C,[1],100 % of control
same,T/C,[4],94 % of control
same,T/C,[2],86 % of control
same,T/C,[5],94 % of control
same,T/C,[6],94 % of control
ClC1(Cl)Cc2ccccc21,T/C,[9],97 % of control
same,T/C,"dose: 177.0 mg/kg/injection, schedule: Q04DX003 (ip), vehicle: saline with Tween-80",98 % of control
same,T/C,[12],96 % of control
same,T/C,[10],101 % of control
same,T/C,"dose: 266.0 mg/kg/injection, schedule: Q04DX003 (ip), vehicle: saline with Tween-80",98 % of control
same,T/C,"dose: 400.0 mg/kg/injection, schedule: Q01DX009 (ip), vehicle: saline with Tween-80",96 % of control
same,T/C,[11],98 % of control
same,T/C,"dose: 600.0 mg/kg/injection, schedule: Q04DX003 (ip), vehicle: saline with Tween-80",110 % of control
CC/C(=N/Nc1ccc([N+](=O)[O-])cc1[N+](=O)[O-])c1cccs1,T/C,"dose: 100.0 mg/kg/injection, schedule: Q01DX001 (ip), vehicle: carboxymethylcellulose (CMC)",100 % of control
same,T/C,"dose: 200.0 mg/kg/injection, schedule: Q01DX001 (ip), vehicle: carboxymethylcellulose (CMC)",97 % of control
CS(=O)(=O)c1nnc(-c2ccccc2)s1,T/C,[3],93 % of control
same,T/C,[1],97 % of control
same,T/C,[9],96 % of control and 90 % of control
same,T/C,[2],94 % of control
same,T/C,[12],93 % of control and 90 % of control
COC(=O)NS(=O)(=O)Nc1ccccc1,T/C,"dose: 100.0 mg/kg/injection, schedule: Q04DX002 (ip), vehicle: saline with Tween-80",97 % of control
same,T/C,"dose: 200.0 mg/kg/injection, schedule: Q04DX002 (ip), vehicle: saline with Tween-80",87 % of control
same,T/C,"dose: 400.0 mg/kg/injection, schedule: Q04DX002 (ip), vehicle: saline with Tween-80",94 % of control
Clc1nc(N2CC2)nc(N2CC2)c1Br,T/C,"dose: 0.2 mg/kg/injection, schedule: Q01DX Z (ip), vehicle: methylcellulose (MC)",88 % of control
same,T/C,"dose: 0.5 mg/kg/injection, schedule: Q01DX Z (ip), vehicle: methylcellulose (MC)",104 % of control
